For series [1] the following is noted: prior-art crystalline forms; cited from earlier work.
A short description of series [2]: Differential scanning calorimetry, decomposing exothermic peak. In kind it is physicochemical. To be noted: 25˜200° C., 10° C./min, nitrogen 80 mL/min. On the procedure: The novel crystalline form of Cefathiamidine compound provided in the present invention is determined by differential scanning calorimeter, and the differential scanning calorimetry thermogram comprises a melting endothermic peak at 169.6±1° C. and a decomposing exothermic peak at 172.2±1° C. as shown in FIG. 6. Test conditions are as follows: temperature range, 25˜200° C., temperature rising rate, 10° C./min, nitrogen protection: 80 mL/min.
A general note: In DSC, transitions show as peaks or steps in heat flow.

A short description of series [3]: Thermal stability tests (storage). Type of series: physicochemical. To be noted: within 4 months at 30° C. As to the method: 5 g of solid Cefathiamidine compound with a purity of 98% was added to 100 mL of ethanol at a temperature of 45° C., until being totally dissolved to form a solution, and then 300 mL of isopropanol as a solventing-out agent was dropwise added to the solution within 3 hours; followed by cooling the solution down to 0° C. at a rate of 0.2° C./min; continuing to stir for 3 hours.

The nature of series [4]: Reproductive toxicity test. Type of series: in vivo. To be noted: compared with prior art. On the procedure:
(§1) The novel crystalline form of Cefathiamidine compound of the present invention was tested by toxicity tests and in vitro antibacterial activity tests (taking the crystalline form of Cefathiamidine compound obtained in Example 1 for example).

Series [5] is described as follows: Toxicity test, LD50 in mice. To be noted: mouse, in vivo. On the procedure:
as §1

For a further series, the system named is streptococcus pneumonia. In words: In vitro antibacterial activity test. To be noted: Streptococcus pneumoniae; against streptococcus pneumonia. Type of series: cell-based. As to the method:
as §1
(§2) Thus, the antibacterial activity was better than that of any prior art, and was more suitable for clinical application.

A further series deals with haemophilus influenza. Description: In vitro antibacterial activity test. Type of series: cell-based. To be noted: against haemophilus influenza. As to the method: as §1, §2
For another series, the system named is enterococcus. Description: In vitro antibacterial activity test. Type of series: cell-based. To be noted: against enterococcus. On the procedure: as §1, §2
The next series has as its system streptococcus pyogenes. Description: In vitro antibacterial activity test. In kind it is cell-based. To be noted: against streptococcus pyogenes. As to the method:
as §1, §2

The next series concerns another three bacterias. In words: In vitro antibacterial activity test. In kind it is cell-based. To be noted: against another three bacterias. As to the method:
as §1, §2

Consider `CC(=O)OCC1=C(C(=O)O)N2C(=O)[C@@H](NC(=O)CSC(=NC(C)C)NC(C)C)[C@H]2SC1` [crystalline form prepared in CN1495187A], for which the “thermal cracking / decomposition temperature” value in [1] was at least 154±1 °C.
For the compound `CC(=O)OCC1=C(C(=O)O)N2C(=O)[C@@H](NC(=O)CSC(=NC(C)C)NC(C)C)[C@H]2SC1`, the “thermal decomposing temperature (decomposing exothermic peak, DSC)” value (“thermal decomposing temperature” below) in series [2] was determined as 172.2±1 °C.
Turning to `CC(=O)OCC1=C(C(=O)O)N2C(=O)[C@@H](NC(=O)CSC(=NC(C)C)NC(C)C)[C@H]2SC1` [Example 6], the “thermal stability (change on storage)” value in series [3] is listed as “did not make any change”. The “thermal decomposing temperature” value in series [2] stood at 171.8 °C.
What is called LD50 is the dose expected to kill half of the subjects tested. A lower LD50 goes with greater toxicity. As for `CC(=O)OCC1=C(C(=O)O)N2C(=O)[C@@H](NC(=O)CSC(=NC(C)C)NC(C)C)[C@H]2SC1.N` [Example 1, (6R,7R)-3[(acetyloxy)methyl]-7-[α-(N,N′-diisopropyl-carbamimidoylsulfanyl)-acetylamino]-8-oxo-5-thia-1-aza-bicyclo[4,2,0]oct-2-ene-2-carboxylic acid ammonium salt], in series [4], the reproductive toxicity entry was “lower reproductive toxicity than that of any prior art”. Further, the “thermal stability (change on storage)” value in [3] was “did not make any change”. The LD50 in [5] (ip, intraperitoneal injection) was found to be 1300 ± 200 mg/kg; in [5] (mice, intravenous injection) it was 1100 ± 20 mg/kg. For the same compound, the “thermal decomposing temperature” value in [2] worked out at 172.2 °C. Also, the MIC90 against streptococcus pneumonia was 0.24 µg/mL; against haemophilus influenza, 1.8 µg/mL; with enterococcus, 1.9 µg/mL; with streptococcus pyogenes, 0.48 µg/mL; against another three bacterias, under 7.8 µg/mL.
Turning to `CC(=O)OCC1=C(C(=O)O)N2C(=O)[C@@H](NC(=O)CSC(=NC(C)C)NC(C)C)[C@H]2SC1` [crystalline form of Cefathiamidine obtained from acetonitril], the “thermal cracking / decomposition temperature” value in [1] is 145.4 °C.

The record behind these values is patent US9637502B2, “Crystal form of Cefathiamidine compound and preparation method therefor” (TIANJIN UNIVERSITY, priority 2014, dated 2017).
